Structures can show the parent of a compound that is named as a salt.
What follows are compounds tested on RSV Long strain (assay: Viral cytopathic effect (CPE) assay, anti-RSV activity). Settings: human respiratory syncytial virus, 144 h, RSV Long strain (ATCC); cell viability after 6 days, Cell Counting kit-8.
Assay type: cell-based, Respiratory Syncytial Virus
Procedure, shortened: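 Cells (6×10^3/well, DMEM with 10% FBS) were infected next day with RSV Long strain, at a dose giving approximately 80–90% CPE, alongside serial half-log compound dilutions. Viability was read after 6 days by CCK-8 absorbance at 450 nm (reference 630 nm), and EC50 was derived from it.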

Compared with `Cc1ccc2nc(N3CCC(F)(F)c4ccccc4C3)cc(N3C[C@@H](N)[C@H](O)C3)c2c1` (relative stereo) [Example 111-11, trans-4-Amino-1-[2-(5,5-difluoro-1,3,4,5-tetrahydro-2H-2-benzazepin-2-yl)-6-methylquinolin-4-yl]pyrrolidin-3-ol], `Cc1ccc2nc(N3CCC(F)(F)c4ccccc4C3)cc(NCCO)c2c1` [Example 111-5, 2-{[2-(5,5-Difluoro-1,3,4,5-tetrahydro-2H-2-benzazepin-2-yl)-6-methylquinolin-4-yl]amino}ethanol] is 2.8-fold higher in EC50: 0.588 µM for the first, 1.64 µM for the second.

Compared with `CCNc1cc(N2CCS(=O)(=O)c3ccccc3C2)nc2ccc(Cl)cc12` [Example 9-30, 6-Chloro-2-(1,1-dioxido-2,3-dihydro-1,4-benzothiazepin-4(5H)-yl)-N-ethylquinolin-4-amine], `Cc1ccc2nc(N3CCS(=O)(=O)c4ccccc4C3)cc(N[C@@H](C)CO)c2c1` [Example 8-2, (2S)-2-{[2-(1,1-Dioxido-2,3-dihydro-1,4-benzothiazepin-4(5H)-yl)-6-methylquinolin-4-yl]amino}propan-1-ol] is 11-fold lower in EC50: 8.59 µM for the first, 0.817 µM for the second. The second is the more potent here.

Going from `Cc1ccc2nc(N3CCS(=O)(=O)c4ccccc4C3)cc(NC(=O)c3cccnn3)c2c1` [Example 3-58, N-[2-(1,1-Dioxido-2,3-dihydro-1,4-benzothiazepin-4(5H)-yl)-6-methylquinolin-4-yl]pyridazine-3-carboxamide] to `Cc1ccc2nc(N3CCS(=O)(=O)c4ccccc4C3)cc(NS(C)(=O)=O)c2c1` [Example 47-7, N-[2-(1,1-Dioxido-2,3-dihydro-1,4-benzothiazepin-4(5H)-yl)-6-methylquinolin-4-yl]methanesulfonamide trifluoroacetate], the EC50 rises from 0.184 µM to 3.41 µM (19-fold).

Going from `COCCOc1ccc2nc(N3CCS(=O)(=O)c4ccccc4C3)cc(NCCCN)c2c1` [Example 30-2, N-[2-(1,1-Dioxido-2,3-dihydro-1,4-benzothiazepin-4(5H)-yl)-6-(2-methoxyethoxy)quinolin-4-yl]propane-1,3-diamine] to `Cc1ccc2nc(N3CCS(=O)(=O)c4ccccc4C3)cc(NCCN3CCS(=O)(=O)CC3)c2c1` [Example 5-1, 2-(1,1-Dioxido-2,3-dihydro-1,4-benzothiazepin-4(5H)-yl)-N-[2-(1,1-dioxidothiomorpholin-4-yl)ethyl]-6-methylquinolin-4-amine], the EC50 rises from 0.218 µM to 9.2 µM (42-fold).

Compared with `Cc1ccc2nc(N3CCS(=O)(=O)c4ccccc4C3)cc(NC3CCOCC3)c2c1` [Example 3-27, 2-(1,1-Dioxido-2,3-dihydro-1,4-benzothiazepin-4(5H)-yl)-6-methyl-N-(tetrahydro-2H-pyran-4-yl)quinolin-4-amine], `Cc1ccc2nc(N3CCS(=O)(=O)c4ccccc4C3)cc(NCC3CCCCN3)c2c1` (centres unmarked) [Example 3-41, 2-(1,1-Dioxido-2,3-dihydro-1,4-benzothiazepin-4(5H)-yl)-6-methyl-N-(piperidin-2-ylmethyl)quinolin-4-amine] is 20-fold lower in EC50: 1.39 µM for the first, 0.071 µM for the second.

First: Cc1ccc2nc(N3CCS(=O)(=O)c4ccc(N5CCN(C(C)C)CC5)cc4C3)cc(NCC3(N)COC3)c2c1 [Example 33-2, N-[(3-Aminooxetan-3-yl)methyl]-2-{1,1-dioxido-7-[4-(propan-2-yl)piperazin-1-yl]-2,3-dihydro-1,4-benzothiazepin-4(5H)-yl}-6-methylquinolin-4-amine]
Second: NC1(CNc2cc(N3CCS(=O)(=O)c4ccccc4C3)nc3ccccc23)COC1 [Example 3-48, N-[(3-Aminooxetan-3-yl)methyl]-2-(1,1-dioxido-2,3-dihydro-1,4-benzothiazepin-4(5H)-yl)quinolin-4-amine]
The EC50 of the first is 27-fold higher: 0.627 µM for the first, 0.023 µM for the second. The second is the more potent here.

First: NCC(O)CNc1cc(N2CCCc3ccccc3C2)nc2ccccc12 (centres unmarked) [Example 118-8, 1-Amino-3-{[2-(1,3,4,5-tetrahydro-2H-2-benzazepin-2-yl)quinolin-4-yl]amino}propan-2-ol trifluoroacetate (salt)]
Second: NC1(CNc2nc(N3CCSc4ccccc4C3)nc3ccccc23)COC1 [Example 57-1, N-[(3-Aminooxetan-3-yl)methyl]-2-(2,3-dihydro-1,4-benzothiazepin-4(5H)-yl)quinazolin-4-amine]
The EC50 of the first is 3.3-fold higher: 0.223 µM for the first, 0.067 µM for the second. The second is the more potent here.

Source: US8871756B2 (Hoffmann-La Roche Inc., priority 2011, dated 2014)
